US20170002048A1, “METHOD FOR PURIFYING AND RE[…] BODIES OF SCORPION TOXIN PROTEIN AND THEIR USE” (GUANGZHOU GLAM BIOTECHNOLOGY CO., LTD., priority 2015, published 2017)

Tested on: HepG2 tumor
Assay: Anti-tumor activity in vivo, HepG2 mice model
Parameters: species or system CD-1 nu/nu mice
Conditions: CHis6-rAGAP 1 and 2 mg/kg, 5-FU 25 mg/kg, every 2 days
Method: The CD-1 nu/nu mice (thymus removed, bodyweight 16˜18 g, half male and half female) were purchased from Shanghai Experiment Animal Center of Chinese Academy of Sciences. The mice were subcutaneously injected 5×10^6 HepG2 cells to make a model, when the tumor volume was grew to about 100 mm^3, the mice were randomized into four groups, 10 mice in each group, the experiment groups were respectively injected 1 mg/kg and 2 mg/kg of CHis6-rAGAP, the positive control group were injected 25 mg/kg of 5-FU, the negative control group was injected with normal saline, the volumes were all 200 μl/2 days. The change of tumor volume and bodyweight of the mice were determined every 2 days, after 18 days the mice were killed, and the tumor were taken out. […] In order to evaluate the influence of CHis6-rAGAP and 5-FU on life quality of the mice, change of mice bodyweight was also determined during the experiment. […] Furthermore, after 18 days of drug administration, there was no death case in the mice of CHis6-rAGAP administration group, whereas 40% of the mice in 5-FU group were dead.

O=c1[nH]cc(F)c(=O)[nH]1 [5-FU]
death of mice after 18 days of drug administration: 40% | influence on bodyweight of the mice (18 days): reduced significantly
